Experimental findings from ChEMBL document CHEMBL1201862, “PubChem BioAssay data set” (2004) are described below.

Some test systems named below: XF498; LXFL 529; M19-MEL; HOP-18; KM-20L2; DMS-273; RXF 631; SNB-78; DMS-114.
Common to all, as to experiment: inhibition of tumour cell growth, NCI panel, 48 h

Each structure is given as a SMILES string.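 Protocol summary: plate cells (96-well), add compound at 5 concentrations, incubate 48 h, interpolate endpoints linearly. Here, GI50 denotes the concentration required for 50% inhibition of growth.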 Active and inactive are the calls of the source. No stated cut-off is given here; in the data, active = GI50 up to about 1.1 µM and inactive = higher.

In the case of `CN(C)C(=S)/N=c1\sn(C)/c(=N\C(=S)N(C)C)n1C`, the GI50 in the experiment with XF498 was > 100 µM (inactive); with LXFL 529 it was > 100 µM (inactive); in the experiment with M19-MEL, 25.8 µM (inactive); in the experiment on HOP-18, > 100 µM (inactive); in the experiment on KM-20L2, > 100 µM (inactive); with DMS-273, 36.7 µM (inactive). The GI50 in the experiment on RXF 631 and with SNB-78 was > 100 µM (inactive) each time.

Regarding `CC(/C=C/C(=O)c1sc(-n2nc(-c3ccccc3)cc2-c2ccccc2)nc1C)=C\c1ccccc1`, the GI50 is 16.9 µM (inactive) with DMS-114; > 10 µM (inactive) in the experiment on XF498; 38.4 µM (inactive) in the experiment on LXFL 529; 75 µM (inactive) with M19-MEL; > 10 µM (inactive) with HOP-18; 20.7 µM (inactive) in the experiment with KM-20L2. The GI50 in the experiment on DMS-273 was > 10 µM (inactive); with RXF 631, 65.9 µM (inactive); in the experiment with SNB-78, > 10 µM (inactive).

Take `CN(C(=O)C12C3(C(=O)C(C)(C)C)C4C5(C#N)C3C1(C(=O)C(C)(C)C)C5C42C(=O)C(C)(C)C)C(C)(C)C` (configuration not stated): the GI50 with DMS-114 is 17.7 µM (inactive); in the experiment on XF498 it was 10.4 µM (inactive); with LXFL 529 it was 21.4 µM (inactive); in the experiment with M19-MEL it was > 50 µM (inactive); in the experiment on KM-20L2, > 50 µM (inactive); with DMS-273 it was 42.8 µM (inactive). Moreover, the GI50 in the experiment on RXF 631 is 42.4 µM (inactive); in the experiment on SNB-78 it was > 50 µM (inactive).

As to `C=C(CO)CC(O)c1ccccc1` (configuration not stated), the GI50 in the experiment with DMS-114, in the experiment on XF498, in the experiment on LXFL 529, in the experiment with M19-MEL, in the experiment with KM-20L2 and with DMS-273 was > 100 µM (inactive) each time. In addition, the GI50 with RXF 631 and in the experiment with SNB-78 was > 100 µM (inactive) each time.

Consider `COc1ccccc1NC(=O)C1=C(C)NC(C)=C(C(=O)Nc2ccccc2OC)C1c1ccc(C(C)C)cc1`, for which the GI50 in the experiment on XF498 is 18.6 µM (inactive); with LXFL 529 it was > 100 µM (inactive); in the experiment with M19-MEL, > 100 µM (inactive); in the experiment with HOP-18 it was > 100 µM (inactive); in the experiment on KM-20L2 it was 48.4 µM (inactive); with DMS-273, 59.7 µM (inactive). Also, in the experiment with RXF 631, the GI50 was > 100 µM (inactive).

`CN1C(=O)C2C(C1=O)C1(O)c3ccccc3C2(N)c2ccccc21` (configuration not stated): the GI50 in the experiment on DMS-114, with M19-MEL, in the experiment with HOP-18, with DMS-273, with RXF 631 and with SNB-78 was > 100 µM (inactive) in each case.

On to `CS(=O)(=O)N(N(CCCl)S(=O)(=O)c1ccccc1)S(C)(=O)=O`, for which the GI50 in the experiment on XF498 is > 100 µM (inactive); in the experiment with LXFL 529 it was > 100 µM (inactive); with M19-MEL, > 100 µM (inactive); in the experiment with HOP-18, 31 µM (inactive); in the experiment with KM-20L2, > 100 µM (inactive); in the experiment on DMS-273, > 100 µM (inactive). Also, in the experiment with RXF 631, the GI50 is > 100 µM (inactive).

As for `O=C1C(c2ccccc2)=C(c2ccccc2)C(c2ccc(CCCCCCc3ccc(C4=C(c5ccccc5)C(=O)C(c5ccccc5)=C4c4ccccc4)cc3)cc2)=C1c1ccccc1`, the GI50 in the experiment on DMS-114, in the experiment with LXFL 529, in the experiment on M19-MEL, with KM-20L2, in the experiment with DMS-273 and in the experiment with RXF 631 was > 100 µM (inactive) in each case. Also, the GI50 in the experiment on SNB-78 was > 100 µM (inactive).

Turning to `O=C(c1cc2c(C(F)(F)F)onc2c2ccccc12)C(F)(F)F`, the GI50 in the experiment with DMS-114 is 2.15 µM (inactive); in the experiment on LXFL 529, 0.347 µM (active); in the experiment with M19-MEL it was 3.1 µM (inactive); with HOP-18, 6.47 µM (inactive); with KM-20L2, 1.22 µM (inactive); with DMS-273, 1.49 µM (inactive). The GI50 with RXF 631 was 2.38 µM (inactive); in the experiment on SNB-78, 0.236 µM (active).

`CCN(c1ccc(Br)cc1)c1c(Br)c(=O)nc2ccccn12`: the GI50 was 70.6 µM (inactive) with DMS-114; > 100 µM (inactive) in the experiment on XF498; > 100 µM (inactive) in the experiment on LXFL 529; > 100 µM (inactive) in the experiment with M19-MEL; > 100 µM (inactive) in the experiment on KM-20L2; 83.2 µM (inactive) with DMS-273. For the same compound, the GI50 with RXF 631 and in the experiment with SNB-78 was > 100 µM (inactive) each time.

In the case of `CC(=O)OCCOCNC(=S)N/N=C/c1ccc([N+](=O)[O-])o1`, the GI50 with DMS-114 is 17.1 µM (inactive); in the experiment with XF498 it was > 100 µM (inactive); in the experiment with LXFL 529, 77.6 µM (inactive); in the experiment with M19-MEL, 15.7 µM (inactive); with HOP-18 it was > 100 µM (inactive); in the experiment with KM-20L2 it was 26.4 µM (inactive). Also, the GI50 is 37.9 µM (inactive) in the experiment on DMS-273, 58.7 µM (inactive) in the experiment with RXF 631 and > 100 µM (inactive) in the experiment on SNB-78.

Consider `O=C1c2cc3c(cc2[C@@H]2NC4CCCC14O2)OCO3` (some centres not stated), for which the GI50 with DMS-114, in the experiment on XF498, with LXFL 529, in the experiment with M19-MEL, in the experiment on KM-20L2 and in the experiment on DMS-273 was > 100 µM (inactive) in each case. Further, in the experiment with SNB-78, the GI50 is > 100 µM (inactive).

As for `Cc1cc(/N=C2\C=C(Nc3cc(C)on3)C(=O)c3ccccc32)no1`, the GI50 in the experiment with DMS-114 is 25.1 µM (inactive); in the experiment on XF498, 35.6 µM (inactive); in the experiment on LXFL 529, > 100 µM (inactive); in the experiment with M19-MEL, 2.64 µM (inactive); in the experiment on HOP-18, 28.4 µM (inactive); with KM-20L2, 43.7 µM (inactive). For the same compound, the GI50 in the experiment with DMS-273 was 80.4 µM (inactive); in the experiment on RXF 631, 28.8 µM (inactive); in the experiment with SNB-78 it was 24.7 µM (inactive).

In the case of `CC1OC(OC2CC(O)(C(=O)CO)Cc3c(O)c4c(c(O)c32)C(=O)c2ccccc2C4=O)CC(N)C1O` (configuration not stated), the GI50 was < 0.01 µM (active) with DMS-114; < 0.0238 µM (active) with LXFL 529; < 0.01 µM (active) in the experiment on M19-MEL; < 0.01 µM (active) in the experiment on HOP-18; < 0.0117 µM (active) in the experiment on KM-20L2; < 0.01 µM (active) with DMS-273. Also, the GI50 was 0.0102 µM (active) in the experiment on RXF 631 and 0.0637 µM (active) in the experiment with SNB-78.

Turning to `COC(=O)C12OCC34C(CC5C(C)=C(O)C(=O)CC5(C)C3C(O)C1O)OC(=O)C(OC(=O)C=C(C)C)C24` (configuration not stated), the GI50 is 167 µM (inactive) in the experiment on DMS-114; 335 µM (inactive) in the experiment on XF498; 287 µM (inactive) in the experiment with M19-MEL; > 500 µM (inactive) in the experiment with HOP-18; > 500 µM (inactive) in the experiment on KM-20L2; > 500 µM (inactive) in the experiment on DMS-273. In addition, in the experiment on SNB-78, the GI50 is > 476 µM (inactive).

With `Cc1nc(-n2nc(-c3ccccc3)cc2-c2ccccc2)sc1C(=O)CC(=O)C(=O)Nc1ccc(Cl)c(Cl)c1`, the GI50 with DMS-114 is 33.6 µM (inactive); in the experiment with LXFL 529, 45.1 µM (inactive); with M19-MEL it was > 100 µM (inactive); in the experiment with HOP-18, > 100 µM (inactive); in the experiment on KM-20L2, 45.8 µM (inactive); in the experiment on DMS-273, 59.8 µM (inactive). The GI50 with RXF 631 and in the experiment on SNB-78 was > 100 µM (inactive) in each case.

As to `CC[C@@H]1NC(C(=O)OC)Cc2c1[nH]c1ccccc21` (some centres not stated), the GI50 with DMS-114, in the experiment with LXFL 529, with M19-MEL, in the experiment on HOP-18, in the experiment with KM-20L2 and with DMS-273 was > 100 µM (inactive) in each case. The GI50 with RXF 631 and in the experiment with SNB-78 was > 100 µM (inactive) each time.

As to `COC(=O)c1ccc(OCc2ccc3nc(OC)c(OC)nc3c2)cc1`, the GI50 is 52.8 µM (inactive) in the experiment with DMS-114; > 100 µM (inactive) with XF498; > 100 µM (inactive) in the experiment on M19-MEL; > 100 µM (inactive) with HOP-18; > 100 µM (inactive) in the experiment with DMS-273; > 100 µM (inactive) with SNB-78.

Regarding `CC(C)N(C(=O)C12C3C4C5(C#N)C3C1(C#N)C5C42I)C(C)C` (configuration not stated), the GI50 with DMS-114 is > 44.4 µM (inactive); in the experiment on XF498, > 100 µM (inactive); in the experiment with LXFL 529 it was > 100 µM (inactive); in the experiment on M19-MEL, 97.1 µM (inactive); with HOP-18 it was > 100 µM (inactive); in the experiment with KM-20L2, > 100 µM (inactive). The GI50 is > 43.4 µM (inactive) in the experiment on DMS-273, > 100 µM (inactive) in the experiment on RXF 631 and > 100 µM (inactive) with SNB-78.

Regarding `COC(=O)[C@]12CC=C3O[C@@H]4OC5(CCCCC5)O[C@@H]4C3[C@@H]1C(=O)CCC2=O` (some centres not stated), the GI50 in the experiment on DMS-114, in the experiment with XF498, with LXFL 529, in the experiment with HOP-18, with KM-20L2 and in the experiment on DMS-273 was > 100 µM (inactive) each time. For the same compound, the GI50 with RXF 631 and with SNB-78 was > 100 µM (inactive) in each case.

Consider `c1cc(-c2cn3c(n2)SCC3)ccn1`, for which the GI50 in the experiment on DMS-114 was > 55 µM (inactive); in the experiment on XF498 it was > 100 µM (inactive); in the experiment on LXFL 529, > 90.6 µM (inactive); with M19-MEL, > 60 µM (inactive); with HOP-18 it was > 100 µM (inactive); in the experiment with KM-20L2 it was > 100 µM (inactive). The GI50 is 28.3 µM (inactive) in the experiment with DMS-273 and > 100 µM (inactive) in the experiment with SNB-78.

As for `Cc1[nH]c2ccccc2c1C1Cc2ccccc2N1C(=O)C#Cc1ccc([N+](=O)[O-])cc1` (configuration not stated), the GI50 in the experiment with DMS-114, in the experiment with XF498, in the experiment on LXFL 529, with HOP-18, in the experiment with KM-20L2 and with SNB-78 was > 100 µM (inactive) each time.

For `Cc1c(Cl)ccc2c1NC(=O)C2(O)CC(=O)c1ccc(Cl)cc1Cl` (configuration not stated), the GI50 is 38.5 µM (inactive) with DMS-114; 16.7 µM (inactive) in the experiment with XF498; 27.8 µM (inactive) in the experiment with LXFL 529; > 50 µM (inactive) in the experiment on M19-MEL; > 50 µM (inactive) in the experiment on KM-20L2; > 50 µM (inactive) in the experiment on DMS-273. The GI50 with RXF 631 was 31 µM (inactive); in the experiment with SNB-78 it was 21.8 µM (inactive).
